Data published in patent publication US12622875B2, “Dosage form comprising an alkaline agent and an enteric coating layer” (Evonik Operations GmbH, priority 2019, dated 2026).
Structures can show the parent of a compound that is named as a salt. Blank lines part the entries; values can stand above or below the molecule they belong to.

What was measured:
[1] = Benazepril HCl API solution stability at different pH and temperature (HPLC % assay); type: physicochemical
[2] = Pantoprazole Sodium solution stability at different pH and temperature (HPLC % assay); type: physicochemical

- % Assay of Benazepril HCl ([1]; pH 1.2, 22° C., Initial): 101%
- % Assay of Benazepril HCl ([1]; pH 1.2, 40° C., 2 Hour): 100%
- % Assay of Benazepril HCl ([1]; pH 1.2, 40° C., 4 Hour): 100%
- % Assay of Benazepril HCl ([1]; pH 1.2, 40° C., 24 Hour): 99%
- % Assay of Benazepril HCl ([1]; pH 3, 22° C., Initial): 100%
- % Assay of Benazepril HCl ([1]; pH 3, 40° C., 2 Hour): 99%
- % Assay of Benazepril HCl ([1]; pH 3, 40° C., 4 Hour): 99%
- % Assay of Benazepril HCl ([1]; pH 3, 40° C., 24 Hour): 98%
- % Assay of Benazepril HCl ([1]; pH 4, 22° C., Initial): 100%
- % Assay of Benazepril HCl ([1]; pH 4, 40° C., 2 Hour): 99%
- % Assay of Benazepril HCl ([1]; pH 4, 40° C., 4 Hour): 99%
- % Assay of Benazepril HCl ([1]; pH 4, 40° C., 24 Hour): 98%
- % Assay of Benazepril HCl ([1]; pH 7, 22° C., Initial): 100%
- % Assay of Benazepril HCl ([1]; pH 7, 40° C., 2 Hour): 100%
- % Assay of Benazepril HCl ([1]; pH 7, 40° C., 4 Hour): 100%
- % Assay of Benazepril HCl ([1]; pH 7, 40° C., 24 Hour): 97%
- % Assay of Benazepril HCl ([1]; pH 9, 22° C., Initial): 101%
- % Assay of Benazepril HCl ([1]; pH 9, 40° C., 2 Hour): 99%
- % Assay of Benazepril HCl ([1]; pH 9, 40° C., 4 Hour): 99%
- % Assay of Benazepril HCl ([1]; pH 9, 40° C., 24 Hour): 91%
SMILES: CCOC(=O)[C@H](CCc1ccccc1)N[C@H]1CCc2ccccc2N(CC(=O)O)C1=O [Benazepril HCl]

- % Assay of Pantoprazole Sodium ([2]; pH 1.2, 22° C., 15 min): 27%
- % Assay of Pantoprazole Sodium ([2]; pH 1.2, 22° C., 30 min): 13%
- % Assay of Pantoprazole Sodium ([2]; pH 1.2, 22° C., 60 min): 7%
- % Assay of Pantoprazole Sodium ([2]; pH 1.2, 22° C., 120 min): 5%
- % Assay of Pantoprazole Sodium ([2]; pH 1.2, 22° C., Initial): 88%
- % Assay of Pantoprazole Sodium ([2]; pH 1.2, 40° C., 15 min): 17%
- % Assay of Pantoprazole Sodium ([2]; pH 1.2, 40° C., 30 min): 6%
- % Assay of Pantoprazole Sodium ([2]; pH 1.2, 40° C., 60 min): 4%
- % Assay of Pantoprazole Sodium ([2]; pH 1.2, 40° C., 120 min): 3%
- % Assay of Pantoprazole Sodium ([2]; pH 3.0, 22° C., 15 min): 32%
- % Assay of Pantoprazole Sodium ([2]; pH 3.0, 22° C., 30 min): 20%
- % Assay of Pantoprazole Sodium ([2]; pH 3.0, 22° C., 60 min): 5%
- % Assay of Pantoprazole Sodium ([2]; pH 3.0, 22° C., 120 min): 1%
- % Assay of Pantoprazole Sodium ([2]; pH 3.0, 22° C., Initial): 81%
- % Assay of Pantoprazole Sodium ([2]; pH 3.0, 40° C., 15 min): 3%
- % Assay of Pantoprazole Sodium ([2]; pH 3.0, 40° C., 30 min): 2%
- % Assay of Pantoprazole Sodium ([2]; pH 3.0, 40° C., 60 min): 2%
- % Assay of Pantoprazole Sodium ([2]; pH 3.0, 40° C., 120 min): 1%
- % Assay of Pantoprazole Sodium ([2]; pH 4.5, 22° C., 15 min): 97%
- % Assay of Pantoprazole Sodium ([2]; pH 4.5, 22° C., 30 min): 96%
- % Assay of Pantoprazole Sodium ([2]; pH 4.5, 22° C., 60 min): 94%
- % Assay of Pantoprazole Sodium ([2]; pH 4.5, 22° C., 120 min): 89%
- % Assay of Pantoprazole Sodium ([2]; pH 4.5, 22° C., Initial): 98%
- % Assay of Pantoprazole Sodium ([2]; pH 4.5, 40° C., 15 min): 92%
- % Assay of Pantoprazole Sodium ([2]; pH 4.5, 40° C., 30 min): 89%
- % Assay of Pantoprazole Sodium ([2]; pH 4.5, 40° C., 60 min): 79%
- % Assay of Pantoprazole Sodium ([2]; pH 4.5, 40° C., 120 min): 64%
- % Assay of Pantoprazole Sodium ([2]; pH 5.5, 22° C., 15 min): 98%
- % Assay of Pantoprazole Sodium ([2]; pH 5.5, 22° C., 30 min): 92%
- % Assay of Pantoprazole Sodium ([2]; pH 5.5, 22° C., 60 min): 94%
- % Assay of Pantoprazole Sodium ([2]; pH 5.5, 22° C., 120 min): 88%
- % Assay of Pantoprazole Sodium ([2]; pH 5.5, 22° C., Initial): 98%
- % Assay of Pantoprazole Sodium ([2]; pH 5.5, 40° C., 15 min): 97%
- % Assay of Pantoprazole Sodium ([2]; pH 5.5, 40° C., 30 min): 86%
- % Assay of Pantoprazole Sodium ([2]; pH 5.5, 40° C., 60 min): 77%
- % Assay of Pantoprazole Sodium ([2]; pH 5.5, 40° C., 120 min): 53%
SMILES: COc1ccnc(C[S+]([O-])c2nc3ccc(OC(F)F)cc3[nH]2)c1OC (centres unmarked) [Pantoprazole Sodium]
